# What was measured:
# [1] = tested on: definitive endoderm-like cells (DELCs); assay: Induction of DELCs into Pdx1+/Nkx6.1+ pancreatic progenitor-like cells (step III); assay type: cell-based, mouse; conditions: screen of 400 compounds, confirmed in larger-well cultures
# Description: At the end of treatment, lineage specific markers were analyzed by immunostaining and/or real-time PCR.
# Primary antibodies used were Sox17 (R&D), Foxa2 (Millipore), Pdx1 (R&D), Hnf6 (Santa Cruz), Pax6 (Covance), Sox9 (Santa Cruz), Nkx6.1 (Developmental Studies Hybridoma Bank), Insulin (Dako), Glucagon (Sigma), Somatostatin (Abcam), Amylase (Abcam), and CK19 (Abcam). Nuclei were visualized by DAPI (Sigma-Aldrich) staining Images were captured using a Nikon Eclipse TE2000-U microscope.
# An available drug collection of 400 compounds in the 48-well format was screened to identity small molecules that induce high percentages of Pdx1^+/Nkx6.1^+ cells in DELC populations. Med-III medium (DMEM supplemented with 1×B27, 2 mM Glutamax) was used as the basal condition and double staining of Pdx1 and Nkx6.1 at 4 days post-induction was used as the readout.
# Induction of Pdx1 and Nkx6.1 expression by small molecules is referred herein to the “third step” (step III) of pancreatic induction.
# [2] = tested on: pancreatic progenitor-like cells (PPLCs); assay: Maturation of PPLCs into pancreatic-like cells (step IV, day 25); assay type: cell-based, mouse; conditions: 5 μM SB203580 or 280 μM pVc used individually, D16-D25, day 25
# Description: The pancreatic progenitor-like cells generated as described herein were treated with Med-IV medium containing laminin, nicotinamide, and B27 etc. as previously reported (Schroeder et al., 2006) to determine whether those PPLCs can be further differentiated into mature pancreatic like cells. After 9 days of culture in this medium, a small population (about 0.5%) of insulin and C-peptide double-positive cells was detected.
# To improve efficiency of pancreatic maturation, the inventors' drug collection was further screened in a “fourth” step (step IV) to identify compounds that increase the percentage of cells that express insulin and Pdx1 on day 25.
# secondary MEF cells = assay: Small molecules in first/second reprogramming steps, Pdx1/Nkx6.1 double staining on day 16; assay type: cell-based, mouse; conditions: 1 μM Bix-01294 D0 to D6; 280 μM pVc D0 to D12; readout day 16
# Description: The inventors then hypothesized that overlapping lineage-specific patterning conditions based on small molecules with early reprogramming would enhance pancreatic induction. To this end, further screens of the inventors' drug collection were performed during the first- and second-step inductions, with double staining of Pdx1 and Nkx6.1 at the end of the third step (day 16) as a readout. […] In particular, 1 μM Bix-01294 (a G9a histone methyltransferase inhibitor), when added from D0 to D6, and 280 μM pVc, when added from D0 to D12, increased the number of Pdx1+/Nkx6.1+ colonies to about 3 fold and 4 fold respectively (FIG. 4D-4E).
# [3] = tested on: Dox-inducible secondary mouse embryonic fibroblasts (MEFs); assay: Direct reprogramming of secondary MEFs into definitive endoderm-like cells (Sox17/Foxa2); assay type: cell-based; conditions: 1 μM Bix-01294 D0-D6; 280 μM pVc D0-D12
# Description: Dox-inducible secondary mouse embryonic fibroblasts (MEFs) (cells at passage 3-4 were regularly used) were plated on Matrigel-coated culture dishes at a cell density of 1×10^4 cells/cm^2. Cells were cultured in MEF medium (Dulbecco's modified Eagle's medium with 10% fetal bovine serum and 2 mM Glutamax) for an additional day. The medium was then changed to Med I (Knock-out DMEM with 10% knock-out serum replacer, 5% FBS, 2 mM Glutamax, 0.1 mM non-essential amino acids (NEAA), and 0.055 mM β-mercaptoethanol) supplemented with 4 μg/ml Dox, 50 ng/ml Activin A and 1 mM LiCl for the indicated time. […] All reagents were purchased from Invitrogen if not specified, and all cytokines were from R&D Systems. […]
# Total RNA was extracted using the RNeasy Plus Mini Kit in combination with QIAshredder (Qiagen). […] Expression of pluripotency and lineage-specific marker genes was analyzed by real-time PCR with iQ SYBR Green Supermix (Bio-Rad). […]
# To test this hypothesis, conditions were evaluated in which definitive endoderm induction factors (Activin/Li) were added to fibroblasts either after (Approach-I) or during (Approach II) iPSC factor expression, using Sox17 and Foxa2 expression as a measure of DELC induction (FIG. 1A).
# [4] = tested on: HDAC activity in HeLa extracts; conditions: read-out: IC50 for inhibition of HDAC activity; cited from earlier work
# cPE cells = assay: Maturation of cPE cells into C-peptide positive beta-like cells in vitro; assay type: cell-based, human; conditions: supplemented individually to basal pancreatic differentiation media
# Text: Full maturation towards glucose responsive cells is optimally illustrated by transplantation of in vitro differentiated pancreas endoderm progenitor cells into immune compromised mice. […] While C-peptide positive cells expressing high levels of PDX1 were consistently observed after 10-14 days in culture (FIG. 11B), the relatively low number of cells (˜0.5%) indicated further optimization of conditions may improve the frequency of conversion to functional beta-like cells. Chemical compounds able to promote differentiation of definitive endoderm (Borowiak et al. (2009)) and PDX1^+ progenitors (Chen et al. (2009) have been identified previously. However, molecules directing the final steps of differentiation into beta-like cells have not been uncovered, likely due to difficulties in generating and maintaining sufficient numbers of differentiation-competent pancreatic endodermal progenitor cells.
# A chemical screen was performed with the intent of identifying factors that would result in the more efficient development of C-peptide positive cells from expanded cPE cells.
# [5] = tested on: histone deacetylases (HDACs); conditions: isoform not stated; read-out: IC50 (histone deacetylase); cited from earlier work
# γ-secretase = conditions: total β-amyloid; cited from earlier work
# presenilase activity = conditions: At higher concentrations (20-4000/1); cited from earlier work
# SAPK2/p38 = SAPK2/p38 (Homo sapiens, UniProt Q16539); conditions: CK1 and ALK5 inhibitor; cited from earlier work
# [6] = tested on: Human foreskin fibroblasts; assay: Conversion of human fibroblasts into definitive endodermal progenitor (cDE) colonies
# SAPK2/p38, sequence (Q16539 whole entry): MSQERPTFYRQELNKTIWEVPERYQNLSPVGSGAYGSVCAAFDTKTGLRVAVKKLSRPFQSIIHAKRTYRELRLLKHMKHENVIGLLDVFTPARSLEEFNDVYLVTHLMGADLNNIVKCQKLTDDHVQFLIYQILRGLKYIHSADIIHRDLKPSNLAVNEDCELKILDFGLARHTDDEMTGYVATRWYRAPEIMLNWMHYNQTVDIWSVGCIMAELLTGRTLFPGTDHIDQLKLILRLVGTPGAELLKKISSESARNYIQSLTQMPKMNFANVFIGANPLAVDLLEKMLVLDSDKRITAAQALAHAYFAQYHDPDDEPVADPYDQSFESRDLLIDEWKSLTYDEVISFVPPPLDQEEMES
compound,measurement,setting,value
2-phospho-L-ascorbic acid trisodium salt [pVc],hit confirmation: increase of Pdx1 and/or Nkx6.1 expression,[1],Confirmed hits
same,number of insulin+/Pdx1+ double-positive cells,[2],significantly increased
same,number of Pdx1+/Nkx6.1+ colonies,secondary MEF cells,~4 fold
same,numbers of Sox17 and Foxa2 single positive and double positive cells,[3],no significant influence
"Cc1cccc(-c2nn(C(=S)Nc3ccccc3)cc2-c2ccnc3ccccc23)n1 [A83-01, 3-(6-Methyl-2-pyridinyl)-N-phenyl-4-(4-quinolinyl)-1H-pyrazole-1-carbothioamide]",hit confirmation: increase of Pdx1 and/or Nkx6.1 expression,[1],Confirmed hits
"Nc1ccccc1NC(=O)CCCCCCC(=O)Nc1ccccc1 [BML-210, N1-(2-aminophenyl)-N8-phenyl-octanediamide]",IC50,[4],~80000 nM
"COC(=O)C1=C(C)NC(C)=C([N+](=O)[O-])C1c1ccccc1C(F)(F)F (stereo not drawn) [BayK-8644, 3-pyridinecarboxylic acid, 1,4-dihydro-2,6-dimethyl-5-nitro-4-(2-(trifluoromethyl)phenyl), methyl ester]",effect on percentage of C-peptide positive cells,cPE cells,effective in increasing
COc1cc2nc(N3CCCN(C)CC3)nc(NC3CCN(Cc4ccccc4)CC3)c2cc1OC [Bix-01294],number of Pdx1+/Nkx6.1+ colonies,secondary MEF cells,about 3 fold
same,numbers of Sox17 and Foxa2 single positive and double positive cells,[3],no significant influence
"CC1(C)NC(=O)C(CCCCCC(=O)[C@H]2CO2)NC(=O)C2CCCN2C(=O)[C@@H](Cc2ccccc2)NC1=O (stereo partly drawn) [Chlamydocin, (3R)-3-benzyl-6,6-dimethyl-9-[6-[(2R)-oxiran-2-yl]-6-oxohexyl]-1,4,7,10-tetrazabicyclo[10.3.0]pentadecane-2,5,8,11-tetrone]",IC50,[5],~0.15 nM
C[C@H](NC(=O)Cc1cc(F)cc(F)c1)C(=O)N[C@H]1N=C(c2ccccc2)c2ccccc2N(C)C1=O [Compound E],effect on percentage of C-peptide positive cells,cPE cells,effective in increasing
same,IC50,γ-secretase,0.3 nM
same,effect on presenilase activity,presenilase activity,only weakly affects
"NC(=O)c1ccc(-c2nc(-c3ccc4c(c3)OCCO4)c(-c3ccccn3)[nH]2)cc1 [D 4476, 4-[4-(2,3-Dihydro-1,4-benzodioxin-6-yl)-5-(2-pyridinyl)-IH-imidazol-2-yl]benzamide]",selectivity over SAPK2/p38,SAPK2/p38,greater than 20 fold
"CC1NC(=O)C(C)NC(=O)C2CCCN2C(=O)C(CCCCCCC(=O)C2CO2)NC1=O [HC Toxin, (6R,9S,14aR)-3,6R-dimethyl-9S-(7-((S)-oxiran-2-yl)-7-oxoheptyl)decahydropyrrolo[1,2-a][1,4,7,10]tetraazacyclododecine-1,4,7,10-tetranone]",IC50,[5],30 nM
Cc1c(C(=O)Nc2ccc(N3C[C@@H](C)O[C@@H](C)C3)nc2)cccc1-c1ccc(OC(F)(F)F)cc1 [LDE225],hit confirmation: increase of Pdx1 and/or Nkx6.1 expression,[1],Confirmed hits
"Nc1ccccc1NC(=O)c1ccc(CNc2nccc(-c3cccnc3)n2)cc1 [MGCD0103, N-(2-aminophenyl)-4-[[(4-pyridin-3-ylpyrimidin-2-yl)amino]methyl]benzamide]",IC50,[5],~100 nM
"Nc1ccccc1NC(=O)c1ccc(CNC(=O)OCc2cccnc2)cc1 [MS-27-275, pyridin-3-ylmethyl-N-[[4-[(2-aminophenyl)carbamoyl]phenyl]methyl]carbamate]",IC50,[5],100 to 1000 nM
"CCNC(=O)[C@H]1O[C@@H](n2cnc3c(N)ncnc32)C(O)C1O (stereo partly drawn) [NECA, 5′-N-ethylcarboxamidoadenosine]","further increase of conversion rate over improved condition (NaB, Par, RG)",[6]; FOXA2 positive colonies day 28,2 fold
same,increase over the basal protocol,"[6]; NECA together with NaB, Par, RG108",5 fold
same,"FOXA2 and SOX17 double-positive cDE colonies from 400,000 human fibroblasts","[6]; optimized condition (NaB, Par, RG108, NECA)",approximately fifty
"C[S+]([O-])c1ccc(-c2nc(-c3ccc(F)cc3)c(-c3ccncc3)[nH]2)cc1 (stereo not drawn) [SB203580, 4-(4-fluorophenyl)-2-(4-methylsulfinylphenyl)-5-(4-pyridyl)-1H-imidazole]",number of insulin+/Pdx1+ double-positive cells,[2],significantly increased
"CC(/C=C/C(=O)NO)=C\[C@@H](C)C(=O)c1ccc(N(C)C)cc1 [Trichostatin A, (R,2E,4E)-6-(4-(dimethylamino)benzoyl)-N-hydroxy-4-methylhepta-2,4-dienamide]",IC50,[5],~1.8 nM
O=C1O[C@H]([C@@H](O)CO)C(O)=C1O [Vitamin C],effect on percentage of C-peptide positive cells,cPE cells,effective in increasing
